Patent publication US20050256134A1, “Use of creatine analogues and creatine kinase modulators for the prevention and treatment of glucose metabolic disorders” (AVICENA GROUP, INC., priority 1995, published 2005)

Tests used:
[1] = test system: female Fisher 344 rats bearing rat mammary adenocarcinoma 13762; test: Effect of creatine compounds on glucose levels in rats bearing tumors (i.v., days 4-8 and 14-18); type: in vivo; conditions: for Glucose Levels: i.v. days 4-8 and 14-18
Experimental: Two creatine compounds, creatine phosphate and cyclocreatine, were injected intravenously into tumor bearing rats, and the level of glucose in the rats was monitored. Beta guanidino propionic acid, also was administered. […] There was no specific reason for using tumor bearing rats, except convenience because the antitumor activity of these compounds also was being studied. The presence of the tumors should not have any effect on the ability of these compounds to regulate glucose levels. The rats carrying the tumors were described by us previously (see, […] et al., Cancer Chemother. Pharmacol, 35: 411-416, 1995). The schedule and dose selected in these experiments was based on prior experience working with this class of compounds as anticancer or antiviral chemotherapeutic agents. The rat mammary adenocarcinoma 13762 was implanted in the female Fisher 344 rats on day zero. The creatine compounds were administered intravenously on days 4-8 and days 14-18. The amounts used were 1 gm/kg of cyclocreatine, 0.93 gm/kg for beta guanidino propionic acid, and 2.32 gm/kg for creatine phosphate. […] Plasma glucose levels were measured at around 11 a.m., by taking a drop of blood from the animals and testing glucose levels using a commercial kit ([…] bG, Boehringer Mannheim). For animals that were treated with drugs, the treatment was around 9 a.m., and bleeding was also at around 11 a.m. To examine more closely what occurred in the above two experiments, the average readings of glucose levels from experiments one and two were taken in the following time intervals post drug treatment: Days 2-3, Days 4-8, Days 8-12, Days 14-18, Day 15 and Days 19-22.

[2] = test system: Male Zuker diabetic fatty (ZDF-fa/fa) rats; test: Creatine compounds as 1% of the diet, glucose and insulin levels in diabetic rats; type: in vivo, rat
Text: This preliminary study was initiated to gain insight into the potential regulation of glucose levels by creatine compounds in ZDF rats, a widely studied rodent model of NIDDM (Peterson, Lessons from Animal Diabetes, 1994, Pages 225-230). Male Zuker diabetic fatty (ZDF-fa/fa) rats and their lean Zuker littermates (ZDF +/?) were from Genetic Models, Inc., Indianapolis, Ind. […] Hyperglycemia is initially manifested at about 7 weeks of age and all obese rats are fully diabetic by 12 weeks of age (fed blood glucose of greater than 500 mg %). This level of hyperglycemia increases slightly for several weeks thereafter. Between 7 and 10 weeks, blood insulin levels are high but these subsequently drop as the pancreatic beta cells cease to respond to the glucose stimulus. The lean (ZDF/Gmi) rats are the control counterparts of the diabetic animals. These rats have the same genetics as the obese animals except for the obesity trait. No phenotypic differences have been observed between these rats and other typical lean control rats.
Male Zuker diabetic fatty (ZDF-fa/fa) rats and Zuker lean littermates (ZDF +/?) were 12 weeks old when dosing with creatine compounds was initiated. The ZDF-fa/fa rats were completely diabetic. The littermates were the same age. […] Animals were bled regularly throughout the experiment and glucose and insulin levels were determined using standard procedures (Linco RI-13K). […]

creatine kinase = conditions: forward reaction, in vitro and in vivo; cited from earlier work

NC1=NCCN1CC(=O)O [cyclocreatine]
Glucose Levels ([1]; Example 1): two drops in glucose levels at the time of drug administration
Glucose Levels ([1]; Example 2 (repeat)): induced a drop in the level of glucose after each administration
drop in glucose level ([1]; average of experiments one and two, day 15): ≤ 50%
drop in glucose levels ([2]; obese diabetic animals, vs Day 0, n=3): ~20%
effect on insulin levels ([2]; obese fatty animals): minimally affected
phosphorylation by creatine kinase (creatine kinase): phosphorylated efficiently
